Assays:
Assay type in all cases: in vivo
[1] = tested on: mTORC1 targets (4EBP1, P70S6K); assay: Western blot of mTOR targets in skeletal muscle after musclin infusion; conditions: WT mice
Method: Western blotting: Whole cell protein extracts were prepared by homogenizing skeletal muscle tissue in NaCl 150 mM, Tris-HCl 50 mM (pH 7.8), supplemented with 1.5% Triton X-100, protease and phosphatase inhibitors (Roche). Nuclear extracts were obtained using the Subcellular Protein Fractionation Kit for Tissues (Thermo Scientific).
Electrophoresis was performed on 3-8% gradient Nu-Page Tris-Acetate or 10% Nu-Page Bis-Tris gels and transferred to 0.2 μm Sequi-Blot PVDF membranes (Bio-Rad). The membranes were blotted with total AKT1 and phospho-AKT1([…], T308, Cell Signaling), FOXO1 (Cell Signaling), total OXPHOS (rodent, Abcam), musclin (custom rabbit IgG produced against partial mouse musclin sequence NH2-sfsgfgspldrlsagsvehrgkqrkavdhskkr-COOH (SEQ ID NO: 4), corresponding to amino acids 80-112, Gen Bank ID: AAS87598.1, Anaspec, Fremont, Calif.), and GAPDH (Santa Cruz Biotechnologies) antibodies. Densitometric analysis of western blots was performed using Adobe Photoshop (Adobe Systems, San Jose, Calif.).
These findings are paralleled by more pure glycolytic fibers and greater fatigability in tibialis anterior (TA) muscles of exercise-trained Ostn-KO vs. WT mice (FIGS. 13A-13C). […] GSK3β phosphorylation is associated with increased autophosphorylation of mTOR at S2481 (FIGS. 14A-14B). Furthermore, consistent with the known activating effect of GSK3β inhibition on mTORC1, we find increased phosphorylation of the mTOR targets 4EBP1, P70S6K and ULK1 in skeletal muscles of trained WT vs. Ostn-KO mice 1 h after last exercise (FIGS. 15A-15B). […] We also find that skeletal muscle autophagy flux 1 h after last exercise is increased in exercise-trained Ostn-KO vs. WT, as reflected in higher LC3A II/I ratio and lower expression of P62 on western blots (FIGS. 16A-16G).

WT and Ostn-KO mice [2] = assay: Voluntary exercise performance on running wheels during musclin infusion
Method: Whole body composition was obtained by time-domain nuclear magnetic resonance under isoflurane anesthesia (Bruker Minispec; Billerica, Mass.). Osmotic pumps: Osmotic pumps (model 1004, 100 μl volume, 0.11 μl/hr release rate, 28 days duration, Alzet Durect, Cupertino, Calif.), loaded with saline vs. 50 μg of mouse musclin peptide (SFSGFGSPLDRLSAG SVEHRGKQRKAVDHSKKR (SEQ ID NO: 4), corresponding to amino acids 80-112, Gen Bank ID: AAS87598.1, synthesized by Biosynthesis, Lewisville, Tex.) were surgically implanted within the peritoneal cavity of mice under sterile conditions and general anesthesia. Mice recovered for 7 days before exercise testing was performed.
Mice were housed in individual cages with free access to attached running wheels (Columbus Instruments, Columbus, Ohio). Running distance was calculated as 1/6πD·ΣRMPi, where D is wheel diameter and ΣRMPi is sum of averaged RPM values.

WT and Ostn-KO mice [3] = assay: VO2 max / oxygen consumption on metabolic treadmill (indirect calorimetry) after musclin infusion; conditions: for oxygen consumption, VO2, over time upon initiation of treadmill exercise: 3 weeks of musclin by osmotic pump
Excerpt: Natriuretic peptide/cGMP signaling is increasingly recognized as a key regulator of metabolic homeostasis, including effects on skeletal muscle mitochondrial biogenesis and oxidative phosphorylation potential. Maximal aerobic capacity (VO2 max) is commonly used to estimate overall aerobic fitness based on cardiopulmonary function and oxidative phosphorylation potential. To determine whether musclin production impacts aerobic capacity as a potential mechanism underlying differences in exercise tolerance, exercise-trained Ostn-KO and WT mice were monitored on a metabolic treadmill equipped for indirect calorimetry (Columbus instruments, Columbus Ohio). After 5 days of training, mice were placed on the stationary treadmill for 30 minutes and then were exposed to the protocol of escalating exercise workload to determine their VO2 max. […] To assess this, electron micrographs of longitudinal sections through tibialis anterior of exercised mice were examined and appear to show smaller mitochondrial size in the Ostn-KO compared to WT mice (FIG. 6B). […] Furthermore, disruption of normal musclin signaling appears to impact fiber type composition. Specifically, histologic examination of skeletal muscles from Ostn-KO vs. WT mice indicates a shift towards more pure glycolytic type IIb fibers in the KO (FIGS. 10A-10B). Differences between sedentary WT and Ostn-KO mice were less marked (FIGS. 11A-11G), which were consistent with the findings that exercise augments musclin signaling in the WT mice. […] The pattern of distribution of fiber types from muscles of sedentary WT and Ostn-KO was similar to that of their exercise-trained counterparts, consistent with a slower adaptation of fiber type to exercise, except that there was a slightly more prominent component of type IIA fibers in exercised mice (FIG. 12, n=4 each for tibialis anterior and n=3 each for biceps femoris, *p<0.05).
Whole body composition was obtained by time-domain nuclear magnetic resonance under isoflurane anesthesia (Bruker Minispec; Billerica, Mass.). […]
A multi-lane treadmill (Columbus Instruments, Columbus, Ohio) was used to simultaneously exercise model mice with their controls. […] For indirect calorimetry, oxygen consumption (VO2) and CO2 generation were measured using a two-lane modular treadmill connected to the Oxymax indirect calorimetry system (Columbus Instruments, Inc.). […]

[4] = musclin 1 ng/g/h i.p. by osmotic pump for 7 d, skeletal muscle western blot, n=3
[5] = Ostn-KO mice treated with musclin by osmotic pump, night, n=4
[6] = WT mice treated with musclin by osmotic pump, night, n=5

## H-SFSGFGSPLDRLSAGSVEHRGKQRKAVDHSKKR-OH [musclin]
[1]; [4]
  4EBP1/GAPDH: 1.78±0.05
  P70S6K/GAPDH: 1.73±0.03
  p-4EBP1/total 4EBP1: 0.59±0.07
  p-P70S6K/total P70S6K: 0.32±0.06
[1]; musclin 1 ng/g/h i.p. for 7 d vs. saline-treated mice
  phosphorylation of mTORC1 targets: greater phosphorylation
WT and Ostn-KO mice [2]; Ostn-KO mice treated with musclin by osmotic pump, n=4
  night-time mean velocity, voluntary running wheel: 53±15 rotations/5 min.
WT and Ostn-KO mice [2]; [5]
  distance run, voluntary running wheel: 2290±632 meters
  duration of running, voluntary running wheel: 333 ± 53 min
WT and Ostn-KO mice [2]; [6]
  distance, voluntary running wheel: 2202±280 meters
  duration, voluntary running wheel: 336 ± 39 min
  mean velocity, voluntary running wheel: 51±7 rotations/5 min.
WT and Ostn-KO mice [3]; Ostn-KO mice after 3 weeks of musclin infusion via osmotic pumps, n=3
  VO2 max: 136.6 ± 1.67 mL/min/kg
WT and Ostn-KO mice [3]; Ostn-KO mice, vs. WT treated with saline
  oxygen consumption, VO2, over time upon initiation of treadmill exercise: better than WT treated with saline once steady state was achieved
WT and Ostn-KO mice [3]; WT mice after 3 weeks of musclin infusion via osmotic pumps, n=4
  VO2 max: 133.9 ± 1.28 mL/min/kg
WT and Ostn-KO mice [3]; WT mice, vs. WT mice treated with saline
  oxygen consumption, VO2, over time upon initiation of treadmill exercise: slightly better for several time points

Source: patent US11634466B2, “Musclin peptides and methods of use thereof” (UNIVERSITY OF IOWA RESEARCH FOUNDATION, priority 2016, dated 2023)
